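Test compounds were applied to cells in 96-well plates for 48 hours at 5 doses. GI50 is the concentration that inhibits growth by half. Definition used: TGI = concentration required for complete inhibition of growth.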
Experiments:
Experiment in all cases: NCI anticancer screen, dose series, 48 h
[1] = system: MOLT-4 leukemia
[2] = system: RPMI-8226 leukemia
[3] = system: SK-MEL-2 melanoma
[4] = system: OVCAR-8 ovarian
[5] = system: SF-268 CNS
[6] = system: HS 578T breast
[7] = system: NCI-H522 lung
[8] = system: EKVX NSCLC
[9] = system: BT-549 breast
[10] = system: OVCAR-4 ovarian
[11] = system: A498 renal
[12] = system: T-47D breast
[13] = system: UACC-62 melanoma
[14] = system: COLO 205 colon
[15] = system: HCC-2998 colon
[16] = system: HL-60(TB) leukemia
[17] = system: CAKI-1 renal
[18] = system: PC-3 prostate
[19] = system: SNB-75 CNS
[20] = system: NCI/ADR-RES ovarian
[21] = system: CCRF-CEM leukemia
[22] = system: SN12C renal
[23] = system: SF-539 CNS
[24] = system: MCF7 breast
[25] = system: ACHN renal
[26] = system: HOP-92 NSCLC
[27] = system: RXF 393 renal
[28] = system: HOP-62 NSCLC
[29] = system: KM12 colon
[30] = system: 786-0 renal
[31] = system: LOX IMVI melanoma
[32] = system: NCI-H23 lung
[33] = system: SW-620 colon
[34] = system: A549 NSCLC
[35] = system: K-562 leukemia
[36] = system: OVCAR-5 ovarian
[37] = system: SR leukemia
[38] = system: MDA-MB-231 breast
[39] = system: SK-MEL-28 melanoma
[40] = system: DU-145 prostate
[41] = system: HCT-15 colon
[42] = system: MDA-MB-468 breast
[43] = system: UO-31 renal
[44] = system: M14 melanoma
[45] = system: NCI-H226 lung
[46] = system: OVCAR-3 ovarian
[47] = system: UACC-257 melanoma
[48] = system: MALME-3M melanoma
[49] = system: U251 CNS
[50] = system: SF-295 CNS
[51] = system: SK-OV-3 ovarian
[52] = system: HT29 colon
[53] = system: IGROV1 ovarian
[54] = system: NCI-H460 lung
[55] = system: TK-10 renal
[56] = system: MDA-MB-435
[57] = system: SNB-19 CNS
[58] = system: SK-MEL-5 melanoma
[59] = system: HCT-116 colon

`Cc1ccc(C(=O)NCCCNc2nc(Nc3ccc(N4CCN(C)CC4)cc3)nc3ccsc23)cc1` was tested. Which GI50 [1] did it give?
The GI50 was 1800 nM.

What about the TGI [1] of the same compound?
Its TGI is 4.89 µM.

And the GI50 [2]?
The GI50 was 2020 nM.

What about the TGI [2] of the same compound?
Its TGI is 6.4 µM.

And the GI50 [3]?
Its GI50 is 4.33 µM.

What about the TGI [3] of the same compound?
Its TGI is 16.5 µM.

What about the GI50 [4] of the same compound?
Its GI50 is 3000 nM.

What about the TGI [4] of the same compound?
The TGI was 11.7 µM.

What about the GI50 [5] of the same compound?
Its GI50 is 2460 nM.

And the TGI [5]?
The TGI was 17.9 µM.

And the GI50 [6]?
The GI50 was 2550 nM.

What about the TGI [6] of the same compound?
The TGI was 18.3 µM.

And the GI50 [7]?
The GI50 was 2210 nM.

What about the TGI [7] of the same compound?
Its TGI is 5.86 µM.

And the GI50 [8]?
The GI50 was 10.2 µM.

And the TGI [8]?
The TGI was 22.3 µM.

What about the GI50 [9] of the same compound?
Its GI50 is 2460 nM.

What about the TGI [9] of the same compound?
The TGI was 7.15 µM.

What about the GI50 [10] of the same compound?
Its GI50 is 3.45 µM.

And the TGI [10]?
Its TGI is 15 µM.

And the GI50 [11]?
The GI50 was 12.3 µM.

And the TGI [11]?
Its TGI is 24.9 µM.

And the GI50 [12]?
The GI50 was 2250 nM.

What about the TGI [12] of the same compound?
Its TGI is 7.62 µM.

What about the GI50 [13] of the same compound?
The GI50 was 1980 nM.

And the TGI [13]?
Its TGI is 4.21 µM.

What about the GI50 [14] of the same compound?
The GI50 was 2350 nM.

What about the TGI [14] of the same compound?
The TGI was 5.43 µM.

And the GI50 [15]?
Its GI50 is 3.44 µM.

What about the TGI [15] of the same compound?
Its TGI is 9.5 µM.

And the GI50 [16]?
Its GI50 is 1990 nM.

What about the TGI [16] of the same compound?
The TGI was 4.52 µM.

And the GI50 [17]?
Its GI50 is 3.3 µM.

And the TGI [17]?
The TGI was 14.1 µM.

What about the GI50 [18] of the same compound?
Its GI50 is 3.33 µM.

What about the TGI [18] of the same compound?
Its TGI is 14.8 µM.

What about the GI50 [19] of the same compound?
Its GI50 is 1910 nM.

And the TGI [19]?
The TGI was 12.1 µM.

And the GI50 [20]?
Its GI50 is 3.11 µM.

What about the TGI [20] of the same compound?
Its TGI is 11.4 µM.

What about the GI50 [21] of the same compound?
The GI50 was 1870 nM.

And the TGI [21]?
The TGI was greater than 100 µM.

And the GI50 [22]?
The GI50 was 7.19 µM.

What about the TGI [22] of the same compound?
Its TGI is 20.7 µM.

And the GI50 [23]?
The GI50 was 1730 nM.

And the TGI [23]?
Its TGI is 3.42 µM.

And the GI50 [24]?
The GI50 was 3.22 µM.

And the TGI [24]?
Its TGI is 11.4 µM.

And the GI50 [25]?
The GI50 was 3.99 µM.

And the TGI [25]?
Its TGI is 15 µM.

And the GI50 [26]?
Its GI50 is 2230 nM.

What about the TGI [26] of the same compound?
The TGI was 10.4 µM.

What about the GI50 [27] of the same compound?
The GI50 was 1470 nM.

What about the TGI [27] of the same compound?
Its TGI is 3.71 µM.

What about the GI50 [28] of the same compound?
The GI50 was 10.3 µM.

What about the TGI [28] of the same compound?
Its TGI is 23.4 µM.

What about the GI50 [29] of the same compound?
The GI50 was 4.02 µM.

And the TGI [29]?
Its TGI is 15.8 µM.

What about the GI50 [30] of the same compound?
The GI50 was 2020 nM.

And the TGI [30]?
Its TGI is 6.3 µM.

And the GI50 [31]?
Its GI50 is 1710 nM.

What about the TGI [31] of the same compound?
The TGI was 3.86 µM.

And the GI50 [32]?
Its GI50 is 5.59 µM.

And the TGI [32]?
Its TGI is 20.5 µM.

And the GI50 [33]?
The GI50 was 2630 nM.

What about the TGI [33] of the same compound?
The TGI was 8 µM.

What about the GI50 [34] of the same compound?
The GI50 was 3.99 µM.

What about the TGI [34] of the same compound?
The TGI was 16.3 µM.

What about the GI50 [35] of the same compound?
Its GI50 is 1740 nM.

And the TGI [35]?
The TGI was 18.4 µM.

And the GI50 [36]?
Its GI50 is 11 µM.

And the TGI [36]?
Its TGI is 25.5 µM.

And the GI50 [37]?
Its GI50 is 1690 nM.

And the TGI [37]?
The TGI was 4.71 µM.

And the GI50 [38]?
Its GI50 is 3.17 µM.

What about the TGI [38] of the same compound?
The TGI was 10.7 µM.

What about the GI50 [39] of the same compound?
The GI50 was 2180 nM.

And the TGI [39]?
The TGI was 4.64 µM.

And the GI50 [40]?
The GI50 was 5.89 µM.

What about the TGI [40] of the same compound?
Its TGI is 19.2 µM.

And the GI50 [41]?
The GI50 was 2540 nM.

And the TGI [41]?
Its TGI is 11.2 µM.

And the GI50 [42]?
Its GI50 is 1300 nM.

And the TGI [42]?
Its TGI is 4.45 µM.

And the GI50 [43]?
Its GI50 is 3.57 µM.

And the TGI [43]?
Its TGI is 15.3 µM.

And the GI50 [44]?
The GI50 was 2140 nM.

And the TGI [44]?
Its TGI is 4.77 µM.

What about the GI50 [45] of the same compound?
Its GI50 is 4.79 µM.

What about the TGI [45] of the same compound?
Its TGI is 19.4 µM.

What about the GI50 [46] of the same compound?
The GI50 was 3.08 µM.

What about the TGI [46] of the same compound?
The TGI was 10.9 µM.

What about the GI50 [47] of the same compound?
The GI50 was 2200 nM.

What about the TGI [47] of the same compound?
Its TGI is 6.2 µM.

What about the GI50 [48] of the same compound?
Its GI50 is 1790 nM.

And the TGI [48]?
The TGI was 3.27 µM.

And the GI50 [49]?
Its GI50 is 2780 nM.

And the TGI [49]?
Its TGI is 11.1 µM.

What about the GI50 [50] of the same compound?
The GI50 was 2680 nM.

What about the TGI [50] of the same compound?
Its TGI is 7.7 µM.

And the GI50 [51]?
Its GI50 is 10.8 µM.

And the TGI [51]?
Its TGI is 24 µM.

What about the GI50 [52] of the same compound?
Its GI50 is 2060 nM.

What about the TGI [52] of the same compound?
The TGI was 5.96 µM.

What about the GI50 [53] of the same compound?
Its GI50 is 4.4 µM.

What about the TGI [53] of the same compound?
The TGI was 17 µM.

What about the GI50 [54] of the same compound?
The GI50 was 3.75 µM.

What about the TGI [54] of the same compound?
The TGI was 14 µM.

And the GI50 [55]?
Its GI50 is 3.14 µM.

And the TGI [55]?
The TGI was 9.36 µM.

And the GI50 [56]?
The GI50 was 4.31 µM.

And the TGI [56]?
Its TGI is 15.5 µM.

And the GI50 [57]?
The GI50 was 10.2 µM.

And the TGI [57]?
Its TGI is 22.2 µM.

What about the GI50 [58] of the same compound?
The GI50 was 1840 nM.

And the TGI [58]?
The TGI was 4.08 µM.

What about the GI50 [59] of the same compound?
Its GI50 is 2620 nM.

What about the TGI [59] of the same compound?
Its TGI is 10.2 µM.

Reference: PubChem BioAssay (NCI)
